# Structures can show the parent of a compound that is named as a salt.
# Target: T1, Human CXCR4 transfected HEK293 cells (Homo sapiens, UniProt P61073)
# T1 construct: expressed in transfected cells; host or cells: HEK293
# Experiment: CXCR4 functional calcium assay (calcium flux FLIPR, antagonism of SDF1 response)
# Assay type: cell-based
# Conditions: CXCR4 functional activity, antagonism of SDF1 (EC50 concentration), read-out: CXCR4 fKi
# In short: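 HEK293 cells stably transfected with human CXCR4 were loaded with 2 μM Fluo-4 AM in HBSS containing 2.5 mM probenecid, 0.1% BSA and 10 mM HEPES at pH 7.4 and 37° C. Compound was added first, then SDF1 at its EC50 concentration, and intracellular calcium fluorescence was followed on a FLIPR. Antagonist dose-response curves were fitted.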
# T1 sequence (P61073 whole entry): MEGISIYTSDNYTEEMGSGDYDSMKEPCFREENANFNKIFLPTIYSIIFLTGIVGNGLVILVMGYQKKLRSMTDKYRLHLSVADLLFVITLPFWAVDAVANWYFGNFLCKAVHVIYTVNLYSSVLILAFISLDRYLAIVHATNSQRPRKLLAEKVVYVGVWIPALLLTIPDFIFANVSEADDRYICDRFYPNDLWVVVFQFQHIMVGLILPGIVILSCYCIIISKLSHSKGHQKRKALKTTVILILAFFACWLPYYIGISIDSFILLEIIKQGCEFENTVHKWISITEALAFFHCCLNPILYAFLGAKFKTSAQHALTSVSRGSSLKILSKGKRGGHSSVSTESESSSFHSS
row,Ki [µM],Compound
1,0.1 to 0.5,"O=C(NCC(F)(F)F)c1cccc(N2CCCN(C3CCN(Cc4ccccc4Cl)CC3)CC2)n1 [Example 48, 6-(4-{1-[(2-Chlorophenyl)methyl]piperidin-4-yl}-1,4-diazepan-1-yl)-N-(2,2,2-trifluoroethyl)pyridine-2-carboxamide]"
2,0.5 to 1,"COc1ccc2cc(-c3cccc(N4CCCN(C5CCN(C(C)C)CC5)CC4)n3)[nH]c2c1 [Example 104, 6-Methoxy-2-(6-{4-[1-(propan-2-yl)piperidin-4-yl]-1,4-diazepan-1-yl}pyridine-2-yl)-1H-indole]"
3,0.5 to 1,"CC(C)N1CCC(N2CCCC(Nc3cccc(C(=O)Nc4ccncc4)n3)C2)CC1 (centres unmarked) [Example 222, 6-({1-[1-(Propan-2-yl)piperidin-4-yl]piperidin-3-yl}amino)-N-(pyridin-4-yl)pyridine-2-carboxamide]"
4,0.02 to 0.1,"CC(C)N1CCC(N2CCCN(c3cccc(C(=O)NCc4nccs4)n3)CC2)CC1 [Example 39, 6-{4-[1-(Propan-2-yl)piperidin-4-yl]-1,4-diazepan-1-yl} N-(1,3-thiazol-2-ylmethyl)pyridine-2-carboxamide]"
5,0.1 to 0.5,"CC(C)N1CCC(N2CCC(C)N(c3cccc(C(=O)NCC4CC4)n3)CC2)CC1 (centres unmarked) [Example 174, N-(Cyclopropylmethyl)-6-{7-methyl-4-[1-(propan-2-yl)piperidin-4-yl]-1,4-diazepan-1-yl}pyridine-2-carboxamide]"
6,0.02 to 0.1,"[2H]C1([2H])CCN(c2cccc(C(=O)Nc3ccncc3)n2)CCN1C1CCN(C(C)C)CC1F (centres unmarked) [Example 187, 6-{4-[3-Fluoro-1-(propan-2-yl)piperidin-4-yl]-5,5-dihydrogenio-1,4-diazepan-1-yl}-N-(pyridin-4-yl)pyridine-2-carboxamide]"
7,0.02 to 0.1,"Cc1ccc(NC(=O)c2cccc(N3CCCN(C4CCN(C(C)C)CC4)CC3)n2)cc1 [Example 27, N-(4-Methylphenyl)-6-{4-[1-(propan-2-yl)piperidin-4-yl]-1,4-diazepan-1-yl}pyridine-2-carboxamide]"
8,0.02 to 0.1,"CC(C)N1CCC(N2CCCN(c3cccc(C(=O)Nc4cccnc4)n3)CC2)CC1 [Example 29, 6-{4-[1-(Propan-2-yl)piperidin-4-yl]-1,4-diazepan-1-yl}-N-(pyridin-3-yl)pyridine-2-carboxamide]"
9,0.02 to 0.1,"CC(C)N1CCC(N2CCCN(c3cccc(C(=O)NCc4cncs4)n3)CC2)CC1 [Example 43, 6-{4-[1-(Propan-2-yl)piperidin-4-yl]-1,4-diazepan-1-yl}-N-(1,3-thiazol-5-ylmethyl)pyridine-2-carboxamide]"
10,0.1 to 0.5,"CC(C)CNC(=O)c1cccc(N2CCCN(C3CCN(C(C)C)CC3)CC2)n1 [Example 6, N-(2-Methylpropyl)-6-{4-[1-(propan-2-yl)piperidin-4-yl]-1,4-diazepan-1-yl}pyridine-2-carboxamide]"
11,0.02 to 0.1,"CC(C)N1CCC(N2CCCN(c3cccc(-c4noc(-c5ccncc5)n4)n3)CC2)CC1 [Example 167, 1-[1-(Propan-2-yl)piperidin-4-yl]-4-{6-[5-(pyridine-4-yl)-1,2,4-oxadiazol-3-yl]pyridine-2-yl}-1,4-diazepane tetrahydrochloride]"
12,< 0.02,"CC[C@H](C)N1CCC(N2CCCN(c3cccc(C(=O)Nc4ccncc4)n3)CC2)CC1 [Example 79, 6-(4-{1-[(2S)-Butan-2-yl]piperidin-4-yl}-1,4-diazepan-1-yl)-N-(pyridine-4-yl)pyridine-2-carboxamide]"
13,< 0.02,"CC(C)N1CCC(N2CCCN(c3cccc(C(=O)NCc4ccco4)n3)CC2)CC1 [Example 40, N-(Furan-2-ylmethyl)-6-{4-[1-(propan-2-yl)piperidin-4-yl]-1,4-diazepan-1-yl}pyridine-2-carboxamide]"
14,0.1 to 0.5,"CCCCc1nc(-c2cccc(N3CCCN(C4CCN(C(C)C)CC4)CC3)n2)no1 [Example 157, 1-[6-(5-Butyl-1,2,4-oxadiazol-3-yl)pyridine-2-yl]-4-[1-(propan-2-yl)piperidin-4-yl]-1,4-diazepane]"
15,0.5 to 1,"CC(C)N1CCC(N2CCCN(c3cccc(-c4nc(C5CC5)no4)n3)CC2)CC1 [Example 169, 1-[6-(3-Cyclopropyl-1,2,4-oxadiazol-5-yl)pyridin-2-yl]-4-[1-(propan-2-yl)piperidin-4-yl]-1,4-diazepane]"
16,0.1 to 0.5,"CC(C)N1CC[C@@H](N2CCCN(c3cccc(C(=O)NCC4CC4)n3)CC2)[C@H](O)C1 [Example 216, N-(Cyclopropylmethyl)-6-{4-[(3R)-3-hydroxy-1-(propan-2-yl)piperidin-4-yl]-1,4-diazepan-1-yl}pyridine-2-carboxamide]"
17,0.1 to 0.5,"O=C(NCC1CC1)c1cccc(N2CCCN(C3CCN(C4CCOC4)CC3)CC2)n1 (centres unmarked) [Example 128, N-(Cyclopropylmethyl)-6-{4-[1-(oxolan-3-yl)piperidin-4-yl]-1,4-diazepan-1-yl}pyridine-2-carboxamide]"

row,Ki [µM],Compound
1,0.02 to 0.1,"CC(C)N1CCC(N2CCCN(c3cccc(-c4cc5cccnc5[nH]4)n3)CC2)CC1 [Example 99, 1-[1-(Propan-2-yl)piperidin-4-yl]-4-(6-{1H-pyrrolo[2,3-b]pyridine-2-yl}pyridine-2-yl)-1,4-diazepane]"
2,< 0.02,"Cc1nc(-c2cccc(N3CCCN(C4CCN(C(C)C)CC4)CC3)n2)[nH]c1C1CC1 [Example 121, 1-[6-(4-Cyclopropyl-5-methyl-1H-imidazol-2-yl)pyridine-2-yl]-4-[1-(propan-2-yl)piperidin-4-yl]-1,4-diazepane]"
3,< 0.02,"C[C@@H](N1CCC(N2CCCN(c3cccc(C(=O)Nc4ccncc4)n3)CC2)CC1)C(F)(F)F [Example 81, N-(Pyridin-4-yl)-6-(4-{1-[(2R)-1,1,1-trifluoropropan-2-yl]piperidin-4-yl}-1,4-diazepan-1-yl)pyridine-2-carboxamide]"
4,0.1 to 0.5,"CCc1cnc(-c2cccc(NCCNC3CCN([C@H](C)CC)CC3)n2)[nH]1 [Example 235, 1-[(2R)-Butan-2-yl]-N-(2-{[6-(4-ethyl-1H-imidazol-2-yl)pyridin-2-yl]amino}ethyl)piperidin-4-amine]"
5,0.1 to 0.5,"c1cc(-c2ncc(C3CC3)[nH]2)nc(N2CCCN(C3CCC(N4CCCC4)CC3)CC2)c1 (centres unmarked) [Example 255, 1-[6-(4-Cyclopropyl-1H-imidazol-2-yl)pyridin-2-yl]-4-[4-(pyrrolidin-1-yl)cyclohexyl]-1,4-diazepane]"
6,< 0.02,"CC(C)N1CCC(N2CCCN(c3cccc(-c4nc5cnccc5[nH]4)n3)CC2)CC1 [Example 106, 1-(6-{3H-Imidazo[4,5-c]pyridin-2-yl}pyridin-2-yl)-4-[1-(propan-2-yl)piperidin-4-yl]-1,4-diazepane]"
7,0.1 to 0.5,"C[C@H](N1CCC(N2CCCN(c3cccc(C(=O)NCc4nccs4)n3)CC2)CC1)C(F)(F)F [Example 94, N-(1,3-Thiazol-2-ylmethyl)-6-(4-{1-[(2S)-1,1,1-trifluoropropan-2-yl]piperidin-4-yl}-1,4-diazepan-1-yl)pyridine-2-carboxamide]"
8,0.5 to 1,"CC(C)c1nc(-c2cccc(N3CCCN(C4CCN(C(C)C)CC4)CC3)n2)no1 [Example 158, 1-{6-[5-(Propan-2-yl)-1,2,4-oxadiazol-3-yl]pyridine-2-yl}-4-[1-(propan-2-yl)piperidin-4-yl]-1,4-diazepane]"
9,0.02 to 0.1,"CC(C)N1CCC(N2CCCN(c3cccc(C(=O)NCc4ncco4)n3)CC2)CC1 [Example 38, N-(1,3-Oxazol-2-ylmethyl)-6-{4-[1-(propan-2-yl)piperidin-4-yl]-1,4-diazepan-1-yl}pyridine-2-carboxamide]"
10,0.1 to 0.5,"O=C(NCC1CC1)c1cccc(N2CCCN(CCCNCc3ccccc3Cl)CC2)n1 [Example 258, 6-[4-(3-{[(2-Chlorophenyl)methyl]amino}propyl)-1,4-diazepan-1-yl]-N-(cyclopropylmethyl)pyridine-2-carboxamide]"
11,0.1 to 0.5,"CCCc1nc(-c2cccc(N3CCCN(C4CCN([C@H](C)CC)CC4)CC3)n2)no1 [Example 154, 1-{1-[(2R)-Butan-2-yl]piperidin-4-yl}-4-[6-(5-propyl-1,2,4-oxadiazol-3-yl)pyridin-2-yl]-1,4-diazepane]"
12,< 0.02,"CCc1cnc(-c2cccc(N3CCCN(C4CCN([C@H](C)CC)CC4)CC3)n2)[nH]1 [Example 116, 1-{1-[(2R)-Butan-2-yl]piperidin-4-yl}-4-[6-(4-ethyl-1H-imidazol-2-yl)pyridine-2-yl]-1,4-diazepane]"
13,0.1 to 0.5,"Cc1nc(-c2cccc(NCCNC3CCN(C(C)C)CC3)n2)[nH]c1C1CC1 [Example 236, N-(2-{[6-(5-Cyclopropyl-4-methyl-1H-imidazol-2-yl)pyridin-2-yl]amino}ethyl)-1-(propan-2-yl)piperidin-4-amine]"
14,0.1 to 0.5,"C[C@H](c1ccccc1)N1CCC(N2CCCN(c3cccc(C(=O)NCC4CC4)n3)CC2)CC1 [Example 74, N-(Cyclopropylmethyl)-6-(4-{1-[(1R)-1-phenylethyl]piperidin-4-yl}-1,4-diazepan-1-yl)pyridine-2-carboxamide]"
15,0.02 to 0.1,"O=C(NCC1CC1)c1cccc(N2CCCN(C3CCN(C4CCCC4)CC3)CC2)n1 [Example 72, 6-[4-(1-Cyclopentylpiperidin-4-yl)-1,4-diazepan-1-yl]-N-(cyclopropylmethyl)pyridine-2-carboxamide]"
16,0.1 to 0.5,"CC(C)N1CCC(N2CCCN(c3cccc(C(=O)NCc4nccn4C)n3)CC2)CC1 [Example 37, N-[(1-Methyl-1H-imidazol-2-yl)methyl]-6-{4-[1-(propan-2-yl)piperidin-4-yl]-1,4-diazepan-1-yl}pyridine-2-carboxamide]"
17,0.5 to 1,"O=C(NCC1CC1)c1cccc(N2CCCN(CCCN3CCC(F)(F)C3)CC2)n1 [Example 253, N-(Cyclopropylmethyl)-6-{4-[3-(3,3-difluoropyrrolidin-1-yl)propyl]-1,4-diazepan-1-yl}pyridine-2-carboxamide]"

row,Compound,Ki [µM]
1,CC(C)N1CCC(N2CC3CCC2CN(c2cccc(C(=O)Nc4ccncc4)n2)C3)C(F)C1 (centres unmarked) [Example 198],0.1 to 0.5
